Type in all cases: in vivo
Data set [1] has as its system Monocots. The experiment in a line: Herbicidal activity, postemergence, monocot weeds (Table II). Conditions: post-emergence, 336 h, about 2 weeks, read-out: % control (percent of plants killed); for pest or weed control at 2241.7 g/ha: 2 lb./A.; for pest or weed control at 4483.4 g/ha: 4 lb./A.; for pest or weed control at 11208.5 g/ha: 10 lb./A. Here is the method:
(§1) Using the procedure described below, diphenyl ethers were evaluated for control of the following weeds: […]
(§2) barnyardgrass (Echinochloa crusgalli) crabgrass (Digitaria spp.) nutsedge (Cyperus esculentus)
(§3) At 2 and 4 pounds per acre:
(§4) **Bermudagrass (Cynodon dactylon)
(§5) *downy brome (Bromus tectorum) foxtail (Setaria faberii)
(§6) Johnsongrass (Sorghum halepense) […]
(§7) quackgrass (Agropyron repens)
(§8) *ryegrass (Lolium perenne)
(§9) *yellow millet (Panicum miliaceum)
(§10) The following test procedure is employed. Seeds of selected crops and weeds are planted in soil in flats. For preemergence tests, the flats are treated with the test compound immediately after the planting. For postemergence tests, the seeds are allowed to germinate, and after 2 weeks the flats are treated with the test compound. The compound to be evaluated is dissolved in acetone, diluted with water, and sprayed over the flats using a carrier volume equivalent to 50 gallons per acre at the rate of application (pounds per acre, lb/A.) specified in the tables. About 2 weeks after the application of the test compound, the state of growth of the plants is observed and the phytotoxic effect of the compound is evaluated. Table II gives the average percent control achieved by the test compounds in terms of the percent of the plants which are killed by the compounds.

Data set [2] deals with Dicots. Put plainly: Herbicidal activity, postemergence, dicot weeds (Table II). The following applies: post-emergence, 336 h, about 2 weeks, read-out: % control (percent of plants killed); for pest or weed control at 2241.7 g/ha: 2 lb./A.; for pest or weed control at 4483.4 g/ha: 4 lb./A.; for pest or weed control at 11208.5 g/ha: 10 lb./A. Here is the method:
as §1
(§11) bindweed (Convolvulus arvensis) curly dock (Remex crispus) velvetleaf (Abutilon theophrasti) wild mustard (Brassica haber)
(§12) At 2 and 4 pounds per acre: […]
(§13) cocklebur (Xanthium pensylvanicum)
(§14) **coffeeweed (Sesbania macrocarpa)
(§15) *curly dock (Rumex crispus)
(§16) *lambsquarters (Chenopodium album) morningglory (Ipomoea purpurea)
(§17) *pigweed (Amaranthus retroflexus)
(§18) **ragweed (Ambrosia artemisiifolia)
(§19) *smartweed (Polygonum pensylvanicum)
(§20) **tomato (Lycopersicon esculentum)
(§21) *wild carrot (Daucus carota)
(§22) *wild mustard (Brassica haber)
as §10

A further data set has as its system rice. Put plainly: Crop tolerance, rice. Conditions: 50% or less kill of crop at rates giving more than 50% kill of weeds. Here is the method:
as §10
(§23) Following the general test procedure of Example 73, diphenyl ethers are evaluated for significant tolerance (as shown by 50% or less kill of the test crop at levels of application which give more than 50% kill of many or all of the weeds of Example 73) towards some or all of the following common agronomic crops (not all compounds tested against all crops): alfalfa, snapbeans, corn, cotton, cucumbers, peanuts, rape, rice, safflower, soybeans, tomatoes, and wheat.

The subject of data set [3] is Monocots. The experiment in a line: Herbicidal activity, preemergence, monocot weeds (Table II). The following applies: pre-emergence, 336 h, about 2 weeks, read-out: % control (percent of plants killed); for pest or weed control at 2241.7 g/ha: 2 lb./A.; for pest or weed control at 4483.4 g/ha: 4 lb./A.; for pest or weed control at 11208.5 g/ha: 10 lb./A. Here is the method: as §1, §2, §3, §4, §5, §6, §7, §8, §9, §10

In data set [4] the test system is Dicots. The experiment in a line: Herbicidal activity, preemergence, dicot weeds (Table II). The following applies: pre-emergence, 336 h, about 2 weeks, read-out: % control (percent of plants killed); for pest or weed control at 2241.7 g/ha: 2 lb./A.; for pest or weed control at 4483.4 g/ha: 4 lb./A.; for pest or weed control at 11208.5 g/ha: 10 lb./A. Here is the method: as §1, §11, §12, §13, §14, §15, §16, §17, §18, §19, §20, §21, §22, §10

The test system of a further data set is corn. Put plainly: Crop tolerance, corn. The following applies: 50% or less kill of crop at rates giving more than 50% kill of weeds. Here is the method:
as §10, §23

The test system of the next data set is peanuts. The experiment in a line: Crop tolerance, peanuts. Conditions: 50% or less kill of crop at rates giving more than 50% kill of weeds. Here is the method:
as §10, §23

The next data set relates to soybeans. The experiment in a line: Crop tolerance, soybeans. Conditions: preemergence; 50% or less kill of crop at rates giving more than 50% kill of weeds. Here is the method: as §10, §23
For the next data set, the system named is wheat. The experiment in a line: Crop tolerance, wheat. The following applies: preemergence; 50% or less kill of crop at rates giving more than 50% kill of weeds. Here is the method: as §10, §23
[5] abbreviates: postemergence or on transplanted rice.

On to `CN(C)c1cc(Oc2ccc(C(F)(F)F)cc2Cl)ccc1[N+](=O)[O-]` [Example 20, 2-chloro-α,α,α-trifluoro-p-tolyl-3-dimethylamino-4-nitrophenyl ether], for which the pest or weed control at 2241.7 g/ha was determined as 80% in the data set on Monocots [1], 97% in the data set on Dicots [2], 80% in the data set on Monocots [3] and 93% in the data set with Dicots [4]. The pest or weed control at 4483.4 g/ha in the data set on Monocots [1] came out at 78%; with Dicots [2], 88%; in the data set with Monocots [3], 88%; in the data set with Dicots [4], 99%. In addition, in the data set on rice (setting [5]), the Tolerance to rice result is “Tolerance”.

In the case of `CNC(=O)C(C)Oc1cc(Oc2ccc(C(F)(F)F)cc2Cl)ccc1[N+](=O)[O-]` (stereo not shown) [Example 52], the pest or weed control at 2241.7 g/ha with Monocots [1] is 93%; in the data set on Dicots [2] it was 100%; in the data set with Monocots [3], 98%; in the data set on Dicots [4], 75%. Further, the pest or weed control at 4483.4 g/ha in the data set on Monocots [1] is 87%; in the data set with Dicots [2], 100%; in the data set with Monocots [3], 79%; with Dicots [4], 67%. Also, the Tolerance to corn entry in the data set with corn (postemergence) and in the data set with corn (preemergence) was “Tolerance” each time. The Tolerance to rice entry in the data set with rice (preemergence) is listed as “Tolerance”. For the same compound, the Tolerance to peanuts result in the data set with peanuts (preemergence) is reported as “Tolerance”. The Tolerance to soybeans entry with soybeans is reported as “Tolerance”.

Turning to `CCOc1cc(Oc2c(Cl)cc(C(F)(F)F)cc2Cl)ccc1[N+](=O)[O-]` [Example 56, 2,6-Dichloro-α,α,α-trifluoro-p-tolyl-3-ethoxy-4-nitrophenyl ether], the pest or weed control at 2241.7 g/ha in the data set on Monocots [1] was 100%; with Dicots [2], 99%; in the data set with Monocots [3], 100%; in the data set with Dicots [4] it was 100%. For the same compound, the pest or weed control at 4483.4 g/ha in the data set with Monocots [1] is 99%; with Dicots [2], 100%; in the data set on Monocots [3], 91%; in the data set with Dicots [4], 83%. The Tolerance to corn result in the data set on corn (postemergence) is on record as “Tolerance”. Besides, the Tolerance to wheat result in the data set with wheat is given as “Tolerance”. The Tolerance to peanuts entry in the data set with peanuts (preemergence) is recorded as “Tolerance”.

With `CC(Oc1cc(Oc2ccc(C(F)(F)F)cc2Cl)ccc1[N+](=O)[O-])C(=O)N(C)C` (stereo not shown) [Example 53], the pest or weed control at 2241.7 g/ha was 81% with Monocots [1], 100% in the data set with Dicots [2], 98% with Monocots [3] and 100% with Dicots [4]. The pest or weed control at 4483.4 g/ha with Monocots [1] was determined as 79%; in the data set with Dicots [2], 100%; in the data set with Monocots [3], 98%; in the data set with Dicots [4], 83%. Moreover, the Tolerance to corn entry with corn (postemergence) is “Tolerance”. The Tolerance to rice entry with rice (setting [5]) is “Tolerance”. The Tolerance to peanuts entry in the data set with peanuts (postemergence) and with peanuts (preemergence) was “Tolerance” throughout. Further, the Tolerance to soybeans result in the data set with soybeans is given as “Tolerance”.

Take `COC(=O)c1cc(Oc2ccc(C(F)(F)F)cc2Cl)ccc1[N+](=O)[O-]` [Example 49, 2-chloro-α,α,α-trifluoro-p-tolyl-3-carbomethoxy-4-nitrophenyl ether]: the pest or weed control at 2241.7 g/ha in the data set on Monocots [1] worked out at 77%; with Dicots [2], 100%; in the data set on Monocots [3], 100%; with Dicots [4], 100%. Besides, the pest or weed control at 4483.4 g/ha in the data set on Monocots [1] stood at 86%; in the data set with Dicots [2] it was 100%; with Monocots [3], 92%; in the data set on Dicots [4], 95%. The Tolerance to corn result with corn (postemergence) is “Tolerance”. For the same compound, in the data set on peanuts (preemergence), the Tolerance to peanuts entry is on record as “Tolerance”. Besides, in the data set on soybeans, the Tolerance to soybeans entry is “Tolerance”.

With `O=[N+]([O-])c1ccc(Oc2ccc(C(F)(F)F)cc2Cl)cc1Cl` [Example 37, 2-chloro-α,α,α-trifluoro-p-tolyl-3-chloro-4-nitrophenyl ether], the pest or weed control at 2241.7 g/ha in the data set with Monocots [1], in the data set with Dicots [2], in the data set on Monocots [3] and in the data set with Dicots [4] was 100% in each case. Besides, the pest or weed control at 4483.4 g/ha in the data set with Monocots [1] came to 92%; in the data set on Dicots [2], 100%; in the data set on Monocots [3] it was 99%; with Dicots [4], 100%. The Tolerance to peanuts result in the data set on peanuts (postemergence) is recorded as “Tolerance”.

Take `O=[N+]([O-])c1ccc(Oc2ccc(C(F)(F)F)cc2Cl)cc1OCC(F)(F)F` [Example 11]: the pest or weed control at 2241.7 g/ha in the data set with Monocots [1] turned out to be 100%; with Dicots [2], 100%; in the data set on Monocots [3], 88%; in the data set with Dicots [4] it was 99%. In addition, the pest or weed control at 4483.4 g/ha is 82% in the data set with Monocots [1], 99% in the data set with Dicots [2], 81% with Monocots [3] and 98% with Dicots [4]. For the same compound, in the data set on corn (preemergence), the Tolerance to corn entry was “Tolerance”. The Tolerance to rice result in the data set on rice (setting [5]) is “Tolerance”. In the data set on soybeans, the Tolerance to soybeans result is “Tolerance”.

In the case of `CCSC(=O)Nc1cc(Oc2ccc(C(F)(F)F)cc2Cl)ccc1[N+](=O)[O-]` [Example 45], the pest or weed control at 2241.7 g/ha came out at 53% with Monocots [1], 78% in the data set on Dicots [2], 68% with Monocots [3] and 77% with Dicots [4]. Also, the pest or weed control at 4483.4 g/ha stood at 17% with Monocots [1], 88% with Dicots [2], 13% in the data set on Monocots [3] and 58% with Dicots [4].

As for `CCCOc1cc(Oc2ccc(C(F)(F)F)cc2Cl)ccc1[N+](=O)[O-]` [Example 5], the pest or weed control at 4483.4 g/ha was 99% with Monocots [1], 100% with Dicots [2], 84% in the data set with Monocots [3] and 78% in the data set on Dicots [4]. Besides, the pest or weed control at 11208.5 g/ha was found to be 100% in the data set with Monocots [1], 100% in the data set on Dicots [2], 97% in the data set on Monocots [3] and 100% with Dicots [4].

With `CCCOc1cc(Oc2ccc(C(F)(F)F)cc2C#N)ccc1[N+](=O)[O-]` [Example 8], the pest or weed control at 2241.7 g/ha was determined as 35% in the data set with Monocots [1], 66% in the data set with Dicots [2], 52% in the data set on Monocots [3] and 46% in the data set with Dicots [4]. Moreover, the pest or weed control at 4483.4 g/ha with Monocots [1] was found to be 48%; with Dicots [2] it was 80%; in the data set with Monocots [3], 61%; in the data set on Dicots [4], 57%. The pest or weed control at 11208.5 g/ha in the data set with Monocots [1] was found to be 85%; in the data set on Dicots [2], 100%; in the data set on Monocots [3] it was 81%; in the data set with Dicots [4], 82%.

Consider `CCCCOc1cc(Oc2ccc(C(F)(F)F)cc2Cl)ccc1[N+](=O)[O-]` [Example 6], for which the pest or weed control at 4483.4 g/ha in the data set with Monocots [1] turned out to be 91%; with Dicots [2] it was 94%; with Monocots [3] it was 77%; with Dicots [4], 55%. The pest or weed control at 11208.5 g/ha in the data set on Monocots [1] is 97%; with Dicots [2] it was 100%; in the data set with Monocots [3] it was 65%; in the data set on Dicots [4], 70%.

As to `C#CCOc1cc(Oc2ccc(C(F)(F)F)cc2Cl)ccc1[N+](=O)[O-]` [Example 13], the pest or weed control at 2241.7 g/ha is 100% in the data set with Monocots [1], 100% with Dicots [2], 78% in the data set on Monocots [3] and 72% in the data set on Dicots [4]. For the same compound, the pest or weed control at 4483.4 g/ha in the data set with Monocots [1] worked out at 77%; in the data set with Dicots [2] it was 98%; in the data set with Monocots [3], 76%; in the data set on Dicots [4] it was 90%.
